What was measured:
Akt1 = molecular target: T1, Akt1 (Homo sapiens, UniProt P31749); experiment: Akt activation assay (PDK1-mediated activation, LANCE Ultra crosstide TR-FRET), Akt1; format: biochemical; conditions: read-out: Biological Assay 1 IC50 (nM) Akt1
T1 construct: unspecified tag, removed (detagged) (cleaved yes); purchased SignalChem and Proteros (Akt1); Merck Millipore (PDK1) 14-452 (PDK1); none given for Akt1
How it was run: (§1)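 Two-step cascade format: Akt1, Akt2 or Akt3 phosphorylates Ulight-crosstide (100 nM) only after activation by 5 nM PDK1 in presence of PtdIns(3,4,5)P3 vesicles and 100 μM ATP. Product quantified by Eu-antibody TR-FRET after 30 min reaction.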

Akt2 = molecular target: T2, Akt2 (Homo sapiens, UniProt P31751); experiment: Akt activation assay (PDK1-mediated activation, LANCE Ultra crosstide TR-FRET), Akt2; format: biochemical; conditions: read-out: Biological Assay 1 IC50 (nM) Akt2
T2 construct: unspecified tag, removed (detagged) (cleaved yes); purchased SignalChem and Proteros (Akt2); Merck Millipore (PDK1) 14-452 (PDK1); none given for Akt2
T2 sequence (P31751 whole entry): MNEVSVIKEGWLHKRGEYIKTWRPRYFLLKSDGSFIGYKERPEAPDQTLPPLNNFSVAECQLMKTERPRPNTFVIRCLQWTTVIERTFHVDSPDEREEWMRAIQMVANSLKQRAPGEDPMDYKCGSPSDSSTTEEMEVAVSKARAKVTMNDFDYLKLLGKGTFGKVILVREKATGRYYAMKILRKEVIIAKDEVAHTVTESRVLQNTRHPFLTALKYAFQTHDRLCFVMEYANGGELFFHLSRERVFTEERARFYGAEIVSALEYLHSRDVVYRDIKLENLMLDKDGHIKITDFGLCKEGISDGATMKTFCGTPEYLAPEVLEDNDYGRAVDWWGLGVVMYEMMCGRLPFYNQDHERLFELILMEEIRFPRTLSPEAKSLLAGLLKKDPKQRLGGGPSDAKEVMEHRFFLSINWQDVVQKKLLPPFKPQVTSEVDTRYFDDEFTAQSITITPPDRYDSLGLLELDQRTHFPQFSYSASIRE
How it was run: as §1

Akt3 = molecular target: T3, Akt3 (Homo sapiens, UniProt Q9Y243); experiment: Akt activation assay (PDK1-mediated activation, LANCE Ultra crosstide TR-FRET), Akt3; format: biochemical; conditions: read-out: Biological Assay 1 IC50 (nM) Akt3
T3 construct: unspecified tag, removed (detagged) (cleaved yes); purchased SignalChem and Proteros (Akt3); Merck Millipore (PDK1) 14-452 (PDK1); none given for Akt3
T3 sequence (Q9Y243 whole entry): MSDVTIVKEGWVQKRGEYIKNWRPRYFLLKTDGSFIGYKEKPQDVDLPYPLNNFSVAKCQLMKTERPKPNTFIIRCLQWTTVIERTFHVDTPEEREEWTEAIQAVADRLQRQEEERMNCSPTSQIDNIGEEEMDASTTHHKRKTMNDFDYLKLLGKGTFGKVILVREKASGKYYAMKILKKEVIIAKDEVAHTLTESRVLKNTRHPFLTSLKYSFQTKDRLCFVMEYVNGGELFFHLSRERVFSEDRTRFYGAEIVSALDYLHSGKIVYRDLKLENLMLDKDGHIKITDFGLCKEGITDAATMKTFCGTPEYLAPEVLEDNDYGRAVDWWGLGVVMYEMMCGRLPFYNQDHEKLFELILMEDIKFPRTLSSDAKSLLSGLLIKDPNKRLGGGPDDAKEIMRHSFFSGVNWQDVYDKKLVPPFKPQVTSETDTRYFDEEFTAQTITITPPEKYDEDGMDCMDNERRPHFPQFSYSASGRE
How it was run: as §1

p-Akt1 in LNCaP cells = molecular target: T4, p-Akt1 in LNCaP cells (Homo sapiens, UniProt P31749); experiment: Phospho-Akt cellular SureFire assay, p-Akt1 in LNCaP cells; format: cell-based; conditions: read-out: Biological Assay 2 IC50 (nM) Akt1 LNCaP
T4 construct: SureFire assays to detect cellular p-Akt1, p-Akt2 and p-Akt3 levels in WM115 cells (Akt2/3) and LNCaP cells (Akt1); endogenous in cells; host or cells: LNCaP (ECACC 89110211)
T4 sequence (P31749 whole entry): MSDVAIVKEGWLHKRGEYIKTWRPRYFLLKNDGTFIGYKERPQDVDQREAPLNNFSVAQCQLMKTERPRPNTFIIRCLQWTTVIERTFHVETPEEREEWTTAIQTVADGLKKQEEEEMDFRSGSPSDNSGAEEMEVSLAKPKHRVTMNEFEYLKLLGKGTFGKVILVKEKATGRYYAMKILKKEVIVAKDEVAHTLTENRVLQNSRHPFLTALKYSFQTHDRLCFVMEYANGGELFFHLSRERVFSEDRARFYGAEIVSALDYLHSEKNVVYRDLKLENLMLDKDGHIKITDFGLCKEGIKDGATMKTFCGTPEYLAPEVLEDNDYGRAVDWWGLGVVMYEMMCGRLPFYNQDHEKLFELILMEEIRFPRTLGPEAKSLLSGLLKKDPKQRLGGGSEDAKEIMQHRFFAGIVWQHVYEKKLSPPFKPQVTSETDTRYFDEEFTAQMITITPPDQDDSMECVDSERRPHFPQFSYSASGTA
Excerpt: Biological Assay 2: Phospho-Akt (p-Akt) Cellular SureFire Assays
The following describes SureFire assays to detect cellular p-Akt1, p-Akt2 and p-Akt3 levels in WM115 cells (Akt2/3) and LNCaP cells (Akt1). In the case of Akt2 and Akt3, Streptavidin-coated donor beads capture a biotinylated anti-mouse antibody that in turn recognises a mouse total Akt antibody which is specific to each isoform. The protein A-conjugated acceptor beads capture an antibody that recognises the phosphoprotein. Similarly in the Akt1 kit, the donor and acceptor beads are used to capture each antibody pair consisting of an antibody that specifically recognises Akt1 as well as an antibody that recognises the phosphoprotein. In each case, close proximity of the beads allows energy transfer from donor to acceptor.
AlphaScreen® SureFire™ Phospho-Akt1 (pThr308) Kit from Perkin Elmer (TGRA2S10K)
LNCaP cells (ECACC, 89110211) cultured in RPMI-1640 culture media (Fisher, 10665193) supplemented with 2 mM L-glutamine, 1% sodium pyruvate and 10% FBS
Cell treatment: 1×10^5 WM115 cells or 5×10^4 LNCaP cells were seeded into each well of a 96 well poly-D-Lysine coated tissue culture plate and incubated overnight at 37° C.+5% CO2. Media was removed from cells and replaced with assay buffer consisting of the full culture media described above but with 0.1% FBS instead of 10% FBS. Only WM115 cells were stimulated at 37° C.+5% CO2 for 10 min with 5 μL insulin at a final concentration of 100 nM. Cells were incubated with 5 μL of test compound at a final DMSO concentration of 0.3% for 15 min at 37° C.+5% CO2. Cell lysis was carried out according to kit instructions.
Assay format (performed in subdued lighting): 4 μL cell lysate and 5 μL reaction buffer were incubated together in the dark at room temperature for 2 h. Reaction buffer was supplemented with a 1/5 dilution of activation buffer, a 1/50 dilution of acceptor beads and in the case of the custom kits, antibodies were added at dilutions of 1/20,000 for Akt2 and 1/2,000 for Akt3.
2 μL dilution buffer, supplemented with a 1/20 dilution of donor beads was added to each well and incubated for a further 2 h. Plates were read with the EnVision® Multilabel Plate Reader and using the AlphaScreen settings. Compound IC50 was determined using a 4-parameter equation.

p-Akt2 in WM115 cells = molecular target: T5, p-Akt2 in WM115 cells (Homo sapiens, UniProt P31751); experiment: Phospho-Akt cellular SureFire assay, p-Akt2 in WM115 cells; format: cell-based; conditions: insulin stimulated, read-out: Biological Assay 2 IC50 (nM) Akt2 WM115
T5 construct: SureFire assays to detect cellular p-Akt1, p-Akt2 and p-Akt3 levels in WM115 cells (Akt2/3) and LNCaP cells (Akt1); endogenous in cells; host or cells: WM115 (ECACC 91061232), insulin-stimulated
T5 sequence (P31751 whole entry): as the sequence (P31751 whole entry) above
How it was run: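 Readout is a bead-proximity SureFire assay pairing a pThr308 Akt antibody with a total Akt2 antibody, lysate and beads incubated 2 h plus 2 h at room temperature in the dark. Before lysis, serum-starved WM115 cells received 100 nM insulin (10 min), then test compound (15 min, 0.3% DMSO); IC50 by 4-parameter equation.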

p-Akt3 in WM115 cells = molecular target: T6, p-Akt3 in WM115 cells (Homo sapiens, UniProt Q9Y243); experiment: Phospho-Akt cellular SureFire assay, p-Akt3 in WM115 cells; format: cell-based; conditions: insulin stimulated, read-out: Biological Assay 2 IC50 (nM) Akt3 WM115
T6 construct: SureFire assays to detect cellular p-Akt1, p-Akt2 and p-Akt3 levels in WM115 cells (Akt2/3) and LNCaP cells (Akt1); endogenous in cells; host or cells: WM115 (ECACC 91061232), insulin-stimulated
T6 sequence (Q9Y243 whole entry): as the sequence (Q9Y243 whole entry) above
How it was run: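 pThr308-Akt3 in lysates was quantified by bead-proximity SureFire detection, pairing a phospho-specific antibody with a total Akt3 antibody. Before lysis, WM115 cells in 0.1% FBS medium were treated for 15 min at 37 °C with compound (final DMSO 0.3%), following a 10 min stimulation with 100 nM insulin. IC50 was obtained by 4-parameter fitting.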

T1 sequence (P31749 whole entry): as the sequence (P31749 whole entry) above

Structure (SMILES) | IC50 (Akt1) [nM] | IC50 (Akt2) [nM] | IC50 (Akt3) [nM] | IC50 (p-Akt1 in LNCaP cells) [nM] | IC50 (p-Akt2 in WM115 cells) [nM] | IC50 (p-Akt3 in WM115 cells) [nM]
COC(=O)N(C)[C@H]1CC[C@H](C(F)C(=O)Nc2cnc(-c3ccc(C4(N)CCC4)cc3)c(-c3ccccc3)c2)CC1 (relative stereo) [Example 52, Methyl (trans-4-(2-((6-(4-(1-aminocyclobutyl)phenyl)-5-phenylpyridin-3-yl)amino)-1-fluoro-2-oxoethyl)cyclohexyl)(methyl)carbamate] | 6100 | 520 | 92 | > 10000 | 5000 | 180
CC(=O)N(C)[C@H]1CC[C@H](CC(=O)Nc2cnc(-c3ccc([C@]4(N)C[C@](C)(O)C4)cc3)c(-c3ccccc3)c2)CC1 [Example 1, N-(6-(4-(trans-1-amino-3-hydroxy-3-methylcyclobutyl)phenyl)-5-phenylpyridin-3-yl)-2-(trans-4-(N-methylacetamido)cyclohexyl)acetamide] | 780 | 110 | 15 | 2700 | 1800 | 30
CCCC(=O)N(C)[C@H]1CC[C@H](CC(=O)Nc2cnc(-c3ccc(C4(N)CC4)cc3)c(-c3ccccc3)c2)CC1 [Example A33, N-(trans-4-(2-((6-(4-(1-aminocyclopropyl)phenyl)-5-phenylpyridin-3-yl)amino)-2-oxoethyl)cyclohexyl)-N-methylbutyramide] |  | 380 | 98 | > 16000 | 2500 | 140
COC(=O)N(C)[C@H]1CC[C@H](C(C)C(=O)Nc2cnc(-c3ccc(C(C)(C)N)cc3)c(-c3ccccc3)c2)CC1 (stereo partly drawn) [Example A45, Methyl (trans-4-(1-((6-(4-(2-aminopropan-2-yl)phenyl)-5-phenylpyridin-3-yl)amino)-1-oxopropan-2-yl)cyclohexyl)(methyl)carbamate] | > 30000 |  | 2600 | > 30000 | 12000 | 480
C[C@]1(O)C[C@@](N)(c2ccc(-c3cnc(NC(=O)C[C@H]4CC[C@H](N5CCOC5=O)CC4)cc3-c3ccccc3)cc2)C1 [Example A57, N-(5-(4-(trans-1-amino-3-hydroxy-3-methylcyclobutyl)phenyl)-4-phenylpyridin-2-yl)-2-(trans-4-(2-oxooxazolidin-3-yl)cyclohexyl)acetamide] |  | 130 | 8 | 5800 | 360 | 17
CC(=O)N(C)[C@H]1CC[C@H](CC(=O)Nc2cc(-c3ccccc3)c(-c3ccc([C@]4(N)C[C@](C)(O)C4)cc3)cn2)CC1 [Example A58, N-(5-(4-(trans-1-amino-3-hydroxy-3-methylcyclobutyl)phenyl)-4-phenylpyridin-2-yl)-2-(trans-4-(N-methylacetamido)cyclohexyl)acetamide] |  | 190 | 8 | 7900 | 480 | 11
COC(=O)N(C)[C@H]1CC[C@H](CC(=O)Nc2cc(-c3ccccc3)c(-c3ccc([C@]4(N)C[C@H](F)C4)cc3)nn2)CC1 [Example A60, Methyl (trans-4-(2-((6-(4-(trans-1-amino-3-fluorocyclobutyl)phenyl)-5-phenylpyridazin-3-yl)amino)-2-oxoethyl)cyclohexyl)(methyl)carbamate] |  | 630 | 22 | > 30000 | 15000 | 670
COC(=O)N(C)[C@H]1CC[C@H](CC(=O)Nc2cnc(-c3ccc(C4(N)CCC4)cc3)c(-c3ccsc3)c2)CC1 [Example A68, Methyl (trans-4-(2-((6-(4-(1-aminocyclobutyl)phenyl)-5-(thiophen-3-yl)pyridin-3-yl)amino)-2-oxoethyl)cyclohexyl)(methyl)carbamate] |  | 850 | 40 | > 30000 | 7400 | 250
CN(C(=O)C1CC1)[C@H]1CC[C@H](CC(=O)Nc2cc(-c3ccccc3)c(-c3ccc(C4(N)CCC4)cc3)cn2)CC1 [Example A72, N-(trans-4-(2-((5-(4-(1-aminocyclobutyl)phenyl)-4-phenylpyridin-2-yl)amino)-2-oxoethyl)cyclohexyl)-N-methylcyclopropanecarboxamide] |  | 290 | 24 | 8800 | 3500 | 220
CC(C)OC(=O)N(C)[C@H]1CC[C@H](CC(=O)Nc2cc(-c3ccccc3)c(-c3ccc([C@]4(N)C[C@](C)(O)C4)cc3)cn2)CC1 [Example A74, Isopropyl (trans-4-(2-((5-(4-(trans-1-amino-3-hydroxy-3-methylcyclobutyl)phenyl)-4-phenylpyridin-2-yl)amino)-2-oxoethyl)cyclohexyl)(methyl)carbamate] |  | 210 | 22 | 11000 | 3000 | 160
CN(C(=O)C1CCC1)[C@H]1CC[C@H](CC(=O)Nc2cc(-c3ccccc3)c(-c3ccc([C@]4(N)C[C@](C)(O)C4)cc3)cn2)CC1 [Example A76, N-(trans-4-(2-((5-(4-(trans-1-amino-3-hydroxy-3-methylcyclobutyl)phenyl)-4-phenylpyridin-2-yl)amino)-2-oxoethyl)cyclohexyl)-N-methylcyclobutanecarboxamide] |  | 190 | 13 | 4300 | 1200 | 59
COC(=O)N[C@H]1CC[C@H](CC(=O)Nc2cc(-c3ccccc3)c(-c3ccc(C4(N)CC4)c(F)c3)cn2)CC1 [Example A106, Methyl (trans-4-(2-((5-(4-(1-aminocyclopropyl)-3-fluorophenyl)-4-phenylpyridin-2-yl)amino)-2-oxoethyl)cyclohexyl)carbamate] |  | 11000 | 750 | > 30000 | 23000 | 1700
CC(C)N(C(=O)C1CC1)[C@H]1CC[C@H](CC(=O)Nc2cc(-c3ccccc3)c(-c3ccc([C@]4(N)C[C@](C)(O)C4)cc3)cn2)CC1 [Example A108, N-(trans-4-(2-((5-(4-(trans-1-amino-3-hydroxy-3-methylcyclobutyl)phenyl)-4-phenylpyridin-2-yl)amino)-2-oxoethyl)cyclohexyl)-N-isopropylcyclopropanecarboxamide] |  | 360 | 23 | > 10000 | 2700 | 110
